# According to patent US7820795B2, “Lactobacillus fermentum N-desoxyribosyl transferases and the use thereof for enzymatic synthesis of 2′, 3′—didesoxynucleosides and 2′,3′- didehydro-2′,3′- didesoxynucleosides” (Institut Pasteur, priority 2004, dated 2010):
# How the values were obtained:
# [1] = tested on: HIV (human immunodeficiency virus); conditions: cited from earlier work
# [2] = target: T1, Lactobacillus fermentum N-deoxyribosyl transferase (NTD) variant LFA15T, mutation A15T, SEQ ID No. 4 (Limosilactobacillus fermentum, UniProt Q6YNI5, A15T); assay: Enzymatic activity tests (dT+C, ddT+C and d4T+C reactions), mutated enzyme LFA15T; format: biochemical; conditions: mutant LFA15T; deoxyribosyl donor + C (cytosine)
# T1 construct: crude extract or purified
# T1 sequence (Q6YNI5 1-168 A15T): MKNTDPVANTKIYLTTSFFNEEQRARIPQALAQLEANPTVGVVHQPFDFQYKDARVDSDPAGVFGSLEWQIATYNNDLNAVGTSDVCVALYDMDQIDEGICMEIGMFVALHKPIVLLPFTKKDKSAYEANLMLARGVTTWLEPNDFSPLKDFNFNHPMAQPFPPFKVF
# Method: The sequencing of the plasmids present in the selected transformants of PAK 9 made it possible to identify a mutation in the sequence (ntd) having the effect of substituting a residue T for the residue A in position 15 in the corresponding protein sequence (SEQ ID No. 2) (mutation called A15T).
# 50 μl of enzymatic extract is added to 200 μl of 100 mM citrate buffer, pH 6.44, in the presence of 3 mM ddU or dU final and of 1 mM C final for the strain PAK9, the whole is incubated at 37° C. The progress of the reaction is monitored by TLC (silica; eluent: MeOH—CH2Cl2 (20/80)). […] The disappearance of the substrates and the formation of the products were also quantified by HPLC analysis. […]
# (§1) The cells are then centrifuged for 15′ at 4000 rpm at 4° C., washed in 50 ml of phosphate buffer then the pellet obtained after centrifugation is preserved overnight at −20° C. […] The fractions are then analyzed by SDS-PAGE gel and the enzymatic activity determined. […] The protein concentration is determined by measuring the OD at 280 nm. […]
# The enzymatic activities of the native and mutant N-deoxyribosyl transferases of L. leichmannii (LL and LL G9S) and of L. fermentum (LF and LFA15T) in the exchange reactions dT+C ? dC+T, ddT+C ? ddC+T and d4T+C ? d4C+T were evaluated starting from crude extracts or purified proteins. […]
# [3] = target: T2, Lactobacillus fermentum N-deoxyribosyl transferase (NTD, LF), native/wild type, SEQ ID No. 2 (Limosilactobacillus fermentum, UniProt Q6YNI5); assay: Enzymatic activity tests (dT+C, ddT+C and d4T+C reactions), native enzyme LF; format: biochemical; conditions: deoxyribosyl donor + C (cytosine)
# T2 construct: crude extract or purified
# T2 sequence (Q6YNI5 1-168): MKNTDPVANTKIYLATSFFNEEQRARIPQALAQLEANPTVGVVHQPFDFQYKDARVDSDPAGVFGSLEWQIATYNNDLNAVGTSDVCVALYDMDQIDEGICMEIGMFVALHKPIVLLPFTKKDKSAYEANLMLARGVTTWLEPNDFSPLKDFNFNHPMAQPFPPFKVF
# Method: 50 μl of enzymatic extract is added to 200 μl of 100 mM citrate buffer, pH 6.44, in the presence of 3 mM ddU or dU final and of 1 mM C final for the strain PAK9, the whole is incubated at 37° C. The progress of the reaction is monitored by TLC (silica; eluent: MeOH—CH2Cl2 (20/80)). […] The disappearance of the substrates and the formation of the products were also quantified by HPLC analysis. The different products are separated by analytical HPLC with a reversed-phase column (100-5C18) using a flow rate of 1 ml/min and a linear gradient of 5-25% CH3CN in a 10 mM triethyl ammonium acetate buffer at pH 7.5 for 20 minutes.
# were used as primer in an amplification reaction under standard conditions using the ntd gene of L. fermentum cloned in pSU19 (pLF6) as DNA matrix. The amplification product was digested by the restriction enzymes Nde1 and BamH1 for 2 hours at 37° C., purified on agarose gel and inserted into the plasmid pET24a digested by the same enzymes then the ligation mixture is used to transform the strain β 2033. The plasmid DNA from the colonies was prepared and digested by the enzymes Nde1 and BamH1. […]
# as §1
# The enzymatic activities of the native and mutant N-deoxyribosyl transferases of L. leichmannii (LL and LL G9S) and of L. fermentum (LF and LFA15T) in the exchange reactions dT+C ? dC+T, ddT+C ? ddC+T and d4T+C ? d4C+T were evaluated starting from crude extracts or purified proteins.
# These different values were measured according to the protocol described in the literature [P A Kaminski (2002) “Functional cloning, heterologous expression and purification of two different N-deoxyribosyl transferases from Lactobacillus helveticus” J. Biol. Chem; vol. […]
Compound,inhibition of replication of HIV [1],Kcat [2],Kcat [3]
"OC[C@@H]1CC[C@H](n2cnc3c(O)ncnc32)O1 [ddl, 2′,3′-dideoxyinosine]",effectively inhibit the replication of HIV,–,–
Cc1cn([C@H]2CC[C@@H](CO)O2)c(=O)[nH]c1=O [ddT],–,0.156 µmol/s/µg,0.038 µmol/s/µg
